Test results published in ChEMBL document CHEMBL4840374, “Cytochalasin Derivatives from the Endozoic Curvularia verruculosa CS-129, a Fungus Isolated from the Deep-Sea Squat Lobster Shinkaia crosnieri Living in the Cold Seep Environment” (J Nat Prod, 2021).

Tests used:
HCT-116 = assay: Cytotoxicity against human HCT-116 cells assessed as reduction in cell viability after 72 hrs by MTT assay; assay type: functional, cell-based
HepG2 = assay: Cytotoxicity against human HepG2 cells assessed as reduction in cell viability after 72 hrs by MTT assay; assay type: functional, cell-based
MCF7 = assay: Cytotoxicity against human MCF7 cells assessed as reduction in cell viability after 72 hrs by MTT assay; assay type: functional, cell-based
Edwardsiella tarda = assay: Antibacterial activity against […] QDIO-10 assessed as reduction in microbial growth by microtiter plate reader assay; assay type: functional
Escherichia coli = assay: Antibacterial activity against Escherichia coli EMBLC-1 assessed as reduction in microbial growth by microtiter plate reader assay; assay type: functional
Vibrio parahaemolyticus = assay: Antibacterial activity against Vibrio parahaemolyticus QDIO-8 assessed as reduction in microbial growth by microtiter plate reader assay; assay type: functional
[1] = Homo sapiens, HCT-116, 72 h, read-out: IC50
[2] = Homo sapiens, HepG2, 72 h, read-out: IC50
[3] = Homo sapiens, MCF7, 72 h, read-out: IC50

Row | Compound | MIC (Edwardsiella tarda) [µg/mL] | IC50 (HCT-116; [1]) [µM] | IC50 (HepG2; [2]) [µM] | IC50 (MCF7; [3]) [µM] | other results
1 | C=C1[C@@H](C)[C@H]2[C@H](Cc3ccccc3)NC(=O)[C@]23C(=O)/C=C/[C@H](O)CCC[C@@H](C)C/C=C/[C@H]3[C@@H]1O [DEOXAPHOMIN] |  | 7.6 | 7.1 | 7 | 
2 | C=C1[C@@H](C)[C@H]2[C@H](Cc3ccccc3)NC(=O)[C@]23OC(=O)[C@@H](S[C@H]2CC(=O)CCC[C@@H](C)C/C=C/[C@H]4[C@H](O)C(=C)[C@@H](C)[C@H]5[C@H](Cc6ccccc6)NC(=O)[C@]54OC2=O)CC(=O)CCC[C@@H](C)C/C=C/[C@H]3[C@@H]1O |  |  |  |  | MIC (Escherichia coli): 2 µg/mL
3 | C=C1[C@@H](C)[C@H]2[C@H](Cc3ccccc3)NC(=O)[C@]23OC(=O)/C=C/[C@H](O)CCC[C@@H](C)C/C=C/[C@H]3[C@@H]1O [CYTOCHALASIN B] |  | 12 | 9.5 | 5.2 | MIC (Vibrio parahaemolyticus): 4 µg/mL
4 | C=C1[C@@H](C)[C@H]2[C@H](Cc3ccccc3)NC(=O)[C@]23OC(=O)/C=C/CCCC[C@@H](C)C/C=C/[C@H]3[C@@H]1O |  |  |  |  | IC50 (HCT-116; hct-116): Not Active; IC50 (HepG2; hepg2): Not Active; IC50 (MCF7; mcf7): Not Active

The next lines start with results.

Row | MIC (Edwardsiella tarda) [µg/mL] | Compound | IC50 (HCT-116; [1]) [µM] | IC50 (HepG2; [2]) [µM] | IC50 (MCF7; [3]) [µM] | other results
5 | 8 | C[C@H]1C/C=C/[C@H]2[C@@H]3O[C@]3(C)[C@@H](C)[C@H]3[C@H](Cc4ccccc4)NC(=O)[C@]32OC(=O)/C=C/[C@H](O)CCC1 |  |  |  | 
6 | 8 | C=C1[C@@H](C)[C@H]2[C@H](Cc3ccccc3)NC(=O)[C@]23OC(=O)/C=C/[C@H](O)[C@H](O)CC[C@@H](C)C/C=C/[C@H]3[C@@H]1O | 9.5 | 6.4 | 6 | 
7 | 0.5 | O=C(N[C@H](CO)[C@H](O)c1ccc([N+](=O)[O-])cc1)C(Cl)Cl [CHLORAMPHENICOL] |  |  |  | MIC (Vibrio parahaemolyticus): 2 µg/mL
